Data published in ChEMBL document CHEMBL1125839, “Synthesis and pharmacological evaluation of ether and related analogues of delta 8-, delta 9-, and delta 9,11-tetrahydrocannabinol” (J Med Chem, 1991).

How the values were obtained:
Cannabinoid receptor [1] = target: T1, Cannabinoid receptor (Rattus norvegicus, UniProt Q9QZN9+P20272); test: The compound was tested in vitro for binding activity against THC cannabinoid receptor site, using 3H-CP-55940 as the radioligand; type: protein assay
Mus musculus [2] = test: The compound was tested in vivo for ring immobility in mice; type: functional
Mus musculus [3] = test: The compound was tested in vivo for hypothermic activity in mice; type: functional
Mus musculus [4] = test: The compound was tested in vivo for locomotor activity in mice; type: functional
Mus musculus [5] = test: The compound was tested in vivo for tail-flick latency in mice; type: functional
Cannabinoid receptor [6] = target: T1, Cannabinoid receptor; test: The compound was tested in vitro for binding activity against THC cannabinoid receptor site, using 3H-CP-55940 as the radioligand.; type: protein assay

SMILES | IC50 (Cannabinoid receptor [1]) | ED50 (Mus musculus [2]) | ED50 (Mus musculus [3]) | ED50 (Mus musculus [4]) | MPE50 (Mus musculus [5]) | IC50 (Cannabinoid receptor [6])
C=C1CC[C@@H]2[C@@H](C1)c1c(O)cc(CCC)cc1OC2(C)C | 1.4 µM | > 30 mg/kg | > 30 mg/kg | 20 mg/kg | 15 mg/kg | 
C=C1CC[C@@H]2[C@@H](C1)c1c(O)cc(CCCCC)cc1OC2(C)C |  | 24 mg/kg | 56 mg/kg | 15 mg/kg | 5.4 mg/kg | 
CCCCCc1cc(OC)c2c(c1)OC(C)(C)[C@@H]1CC=C(C)C[C@@H]21 | 3.2 µM | > 100 mg/kg | > 100 mg/kg | > 100 mg/kg | 33 mg/kg | 
CCCCCc1cc(OC)c2c(c1)OC(C)(C)[C@@H]1CCC(C)=C[C@@H]21 | 10 µM | 17 mg/kg | 267 mg/kg | > 100 mg/kg | 116 mg/kg | 
CCCCCc1cc(O)c2c(c1)OC(C)(C)[C@@H]1CCC(C)=C[C@@H]21 [DRONABINOL] |  | 1.5 mg/kg | 1.4 mg/kg | 1 mg/kg | 1.4 mg/kg | 
C=C1C[C@H]2c3c(O)cc(CCCCC)cc3OC(C)(C)[C@@H]2C[C@H]1O | 1.2 µM | 63 mg/kg | 50 mg/kg | 20 mg/kg | 25 mg/kg | 
CCCCCc1cc(O)c2c(c1)OC(C)(C)[C@@H]1CC=C(C)C[C@@H]21 [DELTA-8-TETRAHYDROCANNABINOL] |  | 5.2 mg/kg |  | 1.9 mg/kg | 1.5 mg/kg | 
CCCCCc1cc(OCCN2CCOCC2)c2c(c1)OC(C)(C)[C@@H]1CC=C(C)C[C@@H]21 |  | 118 mg/kg | > 100 mg/kg | > 100 mg/kg | >100 mg/kg | 4.3 µM
